# Test results taken from article PMC12477080, “Polychlorinated biphenyls (PCBs) interact with drug metabolism in vivo” (Archives of Toxicology, 2025).
# Tests used:
# CYP1A2 mRNA = CYP1A2 mRNA expression in primary human hepatocytes (qRT-PCR); format: cell-based; settings: three donors, 48 h exposure, PCB118 0.1–0.5 µM, omeprazole positive control
# [1] = Stability of substrates and metabolites in quality control samples (benchtop, autosampler, freeze-thaw); format: physicochemical; settings: for Autosampler stability (24 h) Av. Accuracy (%): 10° C for 24 hours in the autosampler; for 3x freeze-thaw Av. Accuracy (%): after three freeze-thaw cycles; for Benchtop stability (19 h) Ac. Accuracy (%): room temperature for 19 hours
# Description: The method was validated for intra- and interday accuracy and precision, stability, and matrix effects. […] Validation details are provided in Supplementary Tables 5–7 and supplemental Fig. 3. Glucuronidase/sulfatase digests were used to isolate CYP-specific metabolic activities, reducing interference from polymorphic UDP-glucuronosyltransferase (UGT) and sulfotransferase isoforms.
# Supplemental table 6: Stability of the substrates and metabolites. Quality control samples were left at room temperature for 19 hours (benchtop stability) and at 10° C for 24 hours in the autosampler (autosampler stability) or were measured after three freeze-thaw cycles. Stability samples were measured against a freshly prepared set of calibrators and quality control samples.
# Human CYP1A2 = biological target: T1, Human CYP1A2 (Homo sapiens, UniProt P05177); assay: In vitro metabolism by CYP1A2 Supersomes; format: in vitro ADME
# T1 construct: purchased; host or cells: insect cells
# T1 sequence (P05177 2-516 limits assumed): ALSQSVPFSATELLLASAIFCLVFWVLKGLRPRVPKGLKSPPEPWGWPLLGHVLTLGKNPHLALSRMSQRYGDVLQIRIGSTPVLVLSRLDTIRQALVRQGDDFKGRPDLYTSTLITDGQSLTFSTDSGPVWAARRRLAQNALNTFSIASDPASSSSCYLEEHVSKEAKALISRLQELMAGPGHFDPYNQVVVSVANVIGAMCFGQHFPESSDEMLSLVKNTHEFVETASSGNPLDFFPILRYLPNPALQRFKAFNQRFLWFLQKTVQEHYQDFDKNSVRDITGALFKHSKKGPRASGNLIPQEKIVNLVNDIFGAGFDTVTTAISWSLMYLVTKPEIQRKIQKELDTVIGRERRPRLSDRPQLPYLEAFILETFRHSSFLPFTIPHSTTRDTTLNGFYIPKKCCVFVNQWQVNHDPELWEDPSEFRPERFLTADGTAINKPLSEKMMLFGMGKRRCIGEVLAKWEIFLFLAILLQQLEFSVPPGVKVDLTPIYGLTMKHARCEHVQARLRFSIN
# Description: To investigate the metabolism of PCB118 by CYP1A2, incubation assays were conducted using CYP1A2 supersomes in a total reaction volume of 100 µL. Reaction mixtures were assembled on ice. […] Reactions were initiated by the addition of CYP1A2 supersomes.
# To assess potential non-enzymatic transformations and confirm NADPH-dependent metabolism, control incubations were performed under the following conditions: buffer and enzyme only (no-substrate control), substrate, buffer, and NADPH without enzyme (no-enzyme control), and substrate, buffer, and enzyme without NADPH (no-NADPH control). Each experimental condition was conducted in triplicate, while control conditions were performed as single replicates.
# The resulting supernatants (100 µL) were transferred to LC–MS vials, yielding samples with 80% methanol content for analysis. For the detection of hydroxylated PCB metabolites, reactions were stopped by adding 500 µL methanol, followed by the addition of 50 µL of an internal standard mix (10 ng/mL). Samples were vortexed for 1 min and centrifuged at 4,500 rpm for 10 min. The resulting supernatants were transferred to glass LC vials and evaporated under a nitrogen stream at 45 °C until approximately 50 µL remained. Samples were then reconstituted in 100 µL of 0.1 M ammonium acetate buffer (pH 5.3) before transfer to inserts for LC–MS analysis.
# To determine whether PCB118 serves as a substrate for CYP1A2 and could act as a competitive inhibitor for other CYP1A2 substrates, we conducted in vitro metabolism experiments. […] In parallel, CYP1A2-mediated metabolism of PCB118 was assessed. […] The identity of 4-OH-CB107 was verified by comparison with an authentic reference standard, showing identical retention time and spectral characteristics (supplemental Fig. 1).
compound,measurement,setting,value
"COc1ccc2[nH]c([S+]([O-])Cc3ncc(C)c(OC)c3C)nc2c1 (stereo not drawn) [omeprazol, omeprazole, reference compound]",effect on CYP1A2 mRNA expression,CYP1A2 mRNA,strongly upregulated CYP1A2 expression
same,Autosampler stability (24 h) Av. Accuracy (%),"[1]; QC conc. 0,5 ng/ml","114,94%"
same,3x freeze-thaw Av. Accuracy (%),"[1]; QC conc. 0,5 ng/ml","112,03%"
same,Benchtop stability (19 h) Ac. Accuracy (%),"[1]; QC conc. 0,5 ng/ml","117,42%"
same,Autosampler stability (24 h) Av. Accuracy (%),"[1]; QC conc. 0,25 ng/ml","102,23%"
same,3x freeze-thaw Av. Accuracy (%),"[1]; QC conc. 0,25 ng/ml","112,67%"
same,Benchtop stability (19 h) Ac. Accuracy (%),"[1]; QC conc. 0,25 ng/ml","91,86%"
same,Autosampler stability (24 h) Av. Accuracy (%),[1]; QC conc. 60 ng/ml,"111,22%"
same,3x freeze-thaw Av. Accuracy (%),[1]; QC conc. 60 ng/ml,"106,21%"
same,Benchtop stability (19 h) Ac. Accuracy (%),[1]; QC conc. 60 ng/ml,"112,32%"
same,Autosampler stability (24 h) Av. Accuracy (%),[1]; QC conc. 150 ng/ml,"103,07%"
same,3x freeze-thaw Av. Accuracy (%),[1]; QC conc. 150 ng/ml,"105,55%"
same,Benchtop stability (19 h) Ac. Accuracy (%),[1]; QC conc. 150 ng/ml,"104,38%"
same,Autosampler stability (24 h) Av. Accuracy (%),"[1]; QC conc. 1,5 ng/ml","114,49%"
same,3x freeze-thaw Av. Accuracy (%),"[1]; QC conc. 1,5 ng/ml","111,42%"
same,Benchtop stability (19 h) Ac. Accuracy (%),"[1]; QC conc. 1,5 ng/ml","115,14%"
"CCOc1ccc(NC(C)=O)cc1 [phenacetin, reference compound]",CYP1A2-mediated metabolism of the substrate,"Human CYP1A2; 10 µM substrate, 50 pmol/mL CYP1A2 supersomes, 2 mM NADPH, 1 h (phenacetin), 1 and 4 h (PCB118)",efficiently catalyzed the O-de-ethylation of phenacetin to paracetamol
Oc1c(Cl)cc(-c2ccc(Cl)c(Cl)c2)c(Cl)c1Cl [4-OH-CB107],NADPH dependency of metabolite formation from PCB118,"Human CYP1A2; control incubations lacking NADPH, substrate, or enzyme",strictly NADPH-dependent
